Experimental data published in ChEMBL document CHEMBL3352214, “Studies on indolizines. Evaluation of their biological properties as microtubule-interacting agents and as melanoma targeting compounds” (Eur J Med Chem, 2015).

Experiments:
Ovis aries = species on record: Ovis aries; experiment: Inhibition of sheep brain tubulin polymerization at 100 uM by fluorescence assay
[1] = Growth inhibition of human MOLT4 cells at 10^-5 M after 48 hrs by SRB assay; format: functional; settings: MOLT-4, 48 h, read-out: GI
HL-60(TB) = experiment: Growth inhibition of human HL-60(TB) cells at 10^-5 M after 48 hrs by SRB assay; format: functional; settings: HL-60, 48 h, read-out: GI
[2] = Growth inhibition of human HOP92 cells at 10^-5 M after 48 hrs by SRB assay; format: functional; settings: HOP-92, 48 h, read-out: GI
[3] = Growth inhibition of human EKVX cells at 10^-5 M after 48 hrs by SRB assay; format: functional; settings: read-out: GI
NCI-H522 = experiment: Growth inhibition of human NCI-H522 cells at 10^-5 M after 48 hrs by SRB assay; format: functional; settings: NCI-H522, 48 h, read-out: GI
[4] = Growth inhibition of human HCT116 cells at 10^-5 M after 48 hrs by SRB assay; format: functional; settings: HCT-116, 48 h, read-out: GI
[5] = Growth inhibition of human HCT15 cells at 10^-5 M after 48 hrs by SRB assay; format: functional; settings: HCT-15, 48 h, read-out: GI
MDA-MB-435 = experiment: Growth inhibition of human MDA-MB-435 cells at 10^-5 M after 48 hrs by SRB assay; format: functional; settings: MDA-MB-435, 48 h, read-out: GI
Malme-3M = experiment: Growth inhibition of human MALME-3M cells at 10^-5 M after 48 hrs by SRB assay; format: functional; settings: read-out: GI
CAKI-1 = experiment: Growth inhibition of human Caki1 cells at 10^-5 M after 48 hrs by SRB assay; format: functional; settings: CAKI-1, 48 h, read-out: GI
[6] = Growth inhibition of human PC3 cells at 10^-5 M after 48 hrs by SRB assay; format: functional; settings: PC-3, 48 h, read-out: GI
[7] = Growth inhibition of human SF295 cells at 10^-5 M after 48 hrs by SRB assay; format: functional; settings: SF-295, 48 h, read-out: GI
SNB-75 = experiment: Growth inhibition of human SNB75 cells at 10^-5 M after 48 hrs by SRB assay; format: functional; settings: SNB-75, 48 h, read-out: GI
MCF7 = experiment: Growth inhibition of human MCF7 cells at 10^-5 M after 48 hrs by SRB assay; format: functional; settings: MCF7, 48 h, read-out: GI
T47D = experiment: Growth inhibition of human T47D cells at 10^-5 M after 48 hrs by SRB assay; format: functional; settings: Homo sapiens, T47D, 48 h; read-out: GI
A498 = experiment: Growth inhibition of human A498 cells at 10^-5 M after 48 hrs by SRB assay; format: functional; settings: A498, 48 h, read-out: GI

Row | Structure (SMILES) | inhibition (Ovis aries) [%] | inhibition of growth at 10 µM [1] [%] | inhibition of growth at 10 µM (HL-60(TB)) [%] | inhibition of growth at 10 µM [2] [%] | inhibition of growth at 10 µM [3] [%] | inhibition of growth at 10 µM (NCI-H522) [%] | inhibition of growth at 10 µM [4] [%] | inhibition of growth at 10 µM [5] [%] | inhibition of growth at 10 µM (MDA-MB-435) [%] | inhibition of growth at 10 µM (Malme-3M) [%] | inhibition of growth at 10 µM (CAKI-1) [%] | inhibition of growth at 10 µM [6] [%] | inhibition of growth at 10 µM [7] [%] | inhibition of growth at 10 µM (SNB-75) [%] | inhibition of growth at 10 µM (MCF7) [%] | inhibition of growth at 10 µM (T47D) [%] | inhibition of growth at 10 µM (A498) [%]
1 | CCOC(=O)c1cc(C(=O)c2cc(OC)c(OC)c(OC)c2)n2cc(C)cc(C)c12 | 3 | 0 | 0 | 29 | 6 | 8 | 45 | 0 | 4 | 25 | 13 | 2 | 3 | 11 | 4 | 18 | –
2 | CCOC(=O)c1cc(C(=O)c2ccc(OC)cc2)n2cc(C)cc(C)c12 | 32 | – | 83 | 11 | 29 | 43 | 23 | 14 | 11 | 28 | 24 | 20 | 35 | 46 | 17 | 13 | 30
3 | COC(=O)c1c(C(=O)OC)c2cc(C)ccn2c1C(=O)c1cc(OC)c(OC)c(OC)c1 | 2 | 4 | 7 | 5 | 0 | 5 | 0 | 3 | 0 | 8 | 3 | 1 | 0 | 7 | 0 | 3 | 3
4 | COC(=O)c1c2c(O)nnc(-c3ccc(OC)cc3)c2n2cc(C)cc(C)c12 | 58 | 15 | 7 | 21 | – | 22 | 2 | 0 | 0 | 0 | 15 | 24 | 2 | 19 | 6 | – | 45
5 | COC(=O)c1c(C(=O)OC)c2cccc(C)n2c1C(=O)c1cc(OC)c(OC)c(OC)c1 | 32 | – | – | – | – | – | – | – | – | – | – | – | – | – | – | – | –
6 | COc1cc(C(=O)c2cc(C(=O)O)c3cccc(C)n23)cc(OC)c1OC | 28 | 7 | 3 | – | – | 15 | 0 | 7 | 0 | 0 | 0 | 5 | 0 | 9 | 12 | 0 | 2
7 | COC(=O)c1c(C(=O)OC)c2c(C)cc(C)cn2c1C(=O)c1cc(OC)c(OC)c(OC)c1 | 36 | – | – | – | – | – | – | – | – | – | – | – | – | – | – | – | –
8 | CCOC(=O)c1c(C(=O)OCC)c2cc(C)ccn2c1C(=O)c1cc(OC)c(OC)c(OC)c1 | 39 | – | – | – | – | – | – | – | – | – | – | – | – | – | – | – | –
9 | CCOC(=O)c1c2c(O)nnc(-c3cc(OC)c(OC)c(OC)c3)c2n2cc(C)cc(C)c12 | 43 | 0 | 0 | 0 | – | 1 | 6 | 0 | 0 | 0 | 0 | 0 | 0 | 5 | 0 | 0 | 15
